Tests used:
[1] = tested on: relapsing-remitting multiple sclerosis; assay: MRI brain volumes (pairwise Jacobian integration); type: in vivo, human
Experimental: (§1) Mixed effects negative binomial regression model and linear mixed effects model were used to compare enhancing lesion volume (log-transformed) between treatment groups at all follow-ups, and mixed effects logistic model was used to compare the number of subjects positive for gadolinium enhancing lesions. Linear mixed effects model was carried out to compare the percent change in whole gray matter and cortical gray matter between treatment groups. For the exploratory endpoints of EDSS, PASAT, fatigue, depression, quality of life and brain volume measures, linear mixed effects model was used to compare treatment groups at 12 and 24 months.
(§2) Dual-echo fast spin echo: TR10000, TE12/95, 50 slices, 1×1×3 mm. Fluid attenuated inversion recovery (FLAIR): TR10380, TE88, TI88, TI2500, 50 slices, 1×1×3 mm. Minor changes were allowed to accommodate different platforms and field strengths at each site. MRI data in Dicom format were fully anonymized prior to transfer and then uploaded to the central MRI reading center database. Prior to study onset, each site provided a dummy scan utilizing the standardized sequences for review by the central MRI reading center to verify scan quality and fidelity. Quality control was maintained at each site using standard procedures for clinical scanners (daily phantoms, stability testing). Quarterly phantoms were collected from 12 of the 15 sites, most using the standard American College of Radiology (ACR) phatom. One site upgraded from a Siemens 1.5T to a 3.0T in November 2013, resulting in the acquisition of one month 24 scan on the new scanner. One site upgraded from a Phillips Achieva 3.0T to a Pillips Intera 3.0T after the first subject completed month 24. All subsequent studies were performed on the Intera.
MRI brain, whole gray matter, whole white matter and cortical gray matter volumes were determined using a pairwise Jacobian integration (PJI) method. Pre-processing for structural T1-weighted images included 1) N3 non-uniformity correction, 2) histogram-based intensity normalization, 3) linear standard space registration using ICBM 2009c nonlinear symmetric template, 4) patch-based brain extraction, and 5) lesion-inpainting. Inputs to PJI were a pair of baseline and follow-up pre-processed structural T1-weighed images. The PJI consisted of 1) linear skull-constrained symmetric registration, 2) halfway transformation and resampling, 3) nonlinear symmetric registration using ANTS, and 4) voxelwise Jacobian determinant calculation on the warp field. Whole gray matter and whole white matter tissue masks were generated by SPM8 Segment function. Additional nonlocal means denoising was applied. For whole brain tissue masks, the whole gray matter and whole white matter masks were combined. For cortical gray matter mask, a standard cortical mask was nonlinearly transformed and merged with gray matter mask. The standard template was the ICBM (ICBM 2009c nonlinear symmetric version), and the nonlinear registration was performed by ANTS. Finally, the Jacobian determinants were averaged within the masks for percent volume change in cortical gray matter, whole gray matter, whole white matter, and whole brain.

[2] = tested on: relapsing-remitting multiple sclerosis; assay: Gadolinium enhancing lesions on brain MRI; type: in vivo, human; design: Enhancing lesion volume, mean ± SD: unit not given here
Experimental: as §1, §2
Analysis of gadolinium enhancing lesions and T2 lesions were performed as described by Sicotte et al. (Ann. Neurology 52:421 (2002)). Briefly, MRI data was coded by study site and randomization number. The number and volume of enhancing lesions were quantified on the post contrast T1 weighted scans by an experienced investigator who was blind to treatment group using a semi-automated threshold-based algorithm. To assess T2 lesions, all FLAIR images were RF corrected, then intensity normalized and registered into a common space defined by the baseline scan for each individual. All subsequent scans were registered to the baseline exam for spatial normalization using a rigid body model. T2 lesion areas were determined using a semi-automated intensity based segmentation procedure by a trained, experienced researcher verified by a single investigator (NLS).

[3] = Baseline to 12 months, all patients
[4] = Baseline to 12 months, all patients, listed as Placebo+GA
[5] = Baseline to 12 months, patients with enhancing lesions at baseline
[6] = Baseline to 12 months, patients without enhancing lesions at baseline
[7] = Baseline to 12 months, patients without enhancing lesions at baseline, listed as Placebo+GA
[8] = Baseline to 24 months, all patients
[9] = Baseline to 24 months, patients with enhancing lesions at baseline
[10] = Baseline to 24 months, patients without enhancing lesions at baseline

glatiramer acetate [Placebo + GA]
Cortical gray matter baseline volume ([1]; Baseline): 761 ± 42 cc
White matter baseline volume ([1]; Baseline): 640 ± 32 cc
Whole brain baseline volume ([1]; Baseline): 1602 ± 51 cc
Whole gray matter baseline volume ([1]; Baseline): 926 ± 52 cc
Cortical gray matter volume % change, Mean ± SE [1, 3]: −0.74 ± 0.81, %
Cortical gray matter volume % change, median [1, 3]: −0.69%
White matter volume % change, Mean ± SE [1, 3]: −0.21 ± 0.82, %
White matter volume % change, median [1, 3]: −0.15%
Whole brain volume % change, Mean ± SE [1, 3]: −0.49 ± 0.63, %
Whole brain volume % change, median [1, 3]: −0.43%
Whole gray matter volume % change, Mean ± SE [1, 3]: −0.68 ± 0.71, %
Whole gray matter volume % change, median [1, 3]: −0.66%
Cortical gray matter volume % change, Mean ± SE [1, 4]: −0.74%
Whole gray matter volume % change, Mean ± SE [1, 4]: −0.68%
Cortical gray matter volume % change, Mean ± SE [1, 5]: −0.67 ± 0.72, %
Cortical gray matter volume % change, median [1, 5]: −0.69%
White matter volume % change, Mean ± SE [1, 5]: −0.36 ± 1.06, %
White matter volume % change, median [1, 5]: −0.14%
Whole gray matter volume % change, Mean ± SE [1, 5]: −0.65 ± 0.64, %
Whole gray matter volume % change, median [1, 5]: −0.64%
Cortical gray matter volume % change, Mean ± SE [1, 6]: −0.76 ± 0.85, %
Cortical gray matter volume % change, median [1, 6]: −0.73%
White matter volume % change, Mean ± SE [1, 6]: −0.15 ± 0.71, %
White matter volume % change, median [1, 6]: −0.15%
Whole gray matter volume % change, Mean ± SE [1, 6]: −0.70 ± 0.74, %
Whole gray matter volume % change, median [1, 6]: −0.66%
Cortical gray matter volume % change, Mean ± SE [1, 7]: −0.76%
Whole gray matter volume % change, Mean ± SE [1, 7]: −0.70%
Cortical gray matter volume % change, Mean ± SE [1, 8]: −1.05 ± 0.86, %
Cortical gray matter volume % change, median [1, 8]: −0.94%
White matter volume % change, Mean ± SE [1, 8]: −0.52 ± 1.12, %
White matter volume % change, median [1, 8]: −0.54%
Whole brain volume % change, Mean ± SE [1, 8]: −0.77 ± 0.72, %
Whole brain volume % change, median [1, 8]: −0.88%
Whole gray matter volume % change, Mean ± SE [1, 8]: −0.95 ± 0.75, %
Whole gray matter volume % change, median [1, 8]: −0.93%
Cortical gray matter volume % change, Mean ± SE [1, 9]: −0.82 ± 0.80, %
Cortical gray matter volume % change, median [1, 9]: −0.93%
White matter volume % change, Mean ± SE [1, 9]: −0.62 ± 0.97, %
White matter volume % change, median [1, 9]: −0.84%
Whole gray matter volume % change, Mean ± SE [1, 9]: −0.82 ± 0.70, %
Whole gray matter volume % change, median [1, 9]: −0.92%
Cortical gray matter volume % change, Mean ± SE [1, 10]: −1.12 ± 0.88, %
Cortical gray matter volume % change, median [1, 10]: −0.94%
White matter volume % change, Mean ± SE [1, 10]: −0.46 ± 1.17, %
White matter volume % change, median [1, 10]: −0.48%
Whole gray matter volume % change, Mean ± SE [1, 10]: −0.98 ± 0.77, %
Whole gray matter volume % change, median [1, 10]: −0.92%
Enhancing lesion volume, mean ± SD ([2]; Baseline): 49.9 ± 121.2
Enhancing lesion volume, median ([2]; Baseline): 0
Percentage patients with enhancing lesions % (95% CI) ([2]; Baseline): 29.3 (19.0-39.6) %
Enhancing lesion volume, mean ± SD ([2]; Month 12): 27.4 ± 147.2
Enhancing lesion volume, median ([2]; Month 12): 0
Percentage patients with enhancing lesions % (95% CI) ([2]; Month 12): 21.0 (10.8-31.1) %
Enhancing lesion volume, mean ± SD ([2]; Month 24): 17.9 ± 71.1
Enhancing lesion volume, median ([2]; Month 24): 0
Percentage patients with enhancing lesions % (95% CI) ([2]; Month 24): 14.6 (5.2-23.9) %
Decrease in enhancing lesion volumes ([2]; month 12 vs baseline): 45%

— US10406169B2, “Methods of monitoring estriol therapy” (The Regents of the University of California, priority 2015, dated 2019)
